Test results: ChEMBL document CHEMBL1201862, “PubChem BioAssay data set” (2004)
Activity calls are given as the source filed them.

Legend:
[1] = cells; assay type: functional
[2] = biological target: T1, Microphthalmia-associated transcription factor (Homo sapiens, UniProt O75030); test: TRPM1 promoter luciferase signal decrease, dose response, MITF inhibitor project, cell-based, SK-MEL-5, cherry-picked, set 3 (AID 493073); assay type: functional
T1 sequence (O75030 whole entry): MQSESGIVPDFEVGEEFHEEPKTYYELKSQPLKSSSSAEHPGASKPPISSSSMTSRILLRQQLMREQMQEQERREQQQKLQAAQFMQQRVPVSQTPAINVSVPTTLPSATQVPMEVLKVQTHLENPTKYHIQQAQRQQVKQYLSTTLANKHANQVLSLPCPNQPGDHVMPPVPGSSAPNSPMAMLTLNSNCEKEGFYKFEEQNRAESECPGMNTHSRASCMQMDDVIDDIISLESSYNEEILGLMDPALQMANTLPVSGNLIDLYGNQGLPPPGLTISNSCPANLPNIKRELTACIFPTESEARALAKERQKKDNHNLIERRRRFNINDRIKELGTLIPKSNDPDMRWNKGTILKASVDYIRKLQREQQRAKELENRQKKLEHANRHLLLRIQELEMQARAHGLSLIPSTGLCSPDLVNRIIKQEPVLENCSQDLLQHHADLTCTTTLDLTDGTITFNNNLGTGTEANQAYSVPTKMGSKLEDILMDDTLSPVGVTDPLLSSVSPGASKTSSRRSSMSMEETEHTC

[3] = biological target: T2, DNA repair protein RAD52 homolog (Homo sapiens, UniProt P43351); assay type: functional, biochemical
T2 sequence (P43351 whole entry): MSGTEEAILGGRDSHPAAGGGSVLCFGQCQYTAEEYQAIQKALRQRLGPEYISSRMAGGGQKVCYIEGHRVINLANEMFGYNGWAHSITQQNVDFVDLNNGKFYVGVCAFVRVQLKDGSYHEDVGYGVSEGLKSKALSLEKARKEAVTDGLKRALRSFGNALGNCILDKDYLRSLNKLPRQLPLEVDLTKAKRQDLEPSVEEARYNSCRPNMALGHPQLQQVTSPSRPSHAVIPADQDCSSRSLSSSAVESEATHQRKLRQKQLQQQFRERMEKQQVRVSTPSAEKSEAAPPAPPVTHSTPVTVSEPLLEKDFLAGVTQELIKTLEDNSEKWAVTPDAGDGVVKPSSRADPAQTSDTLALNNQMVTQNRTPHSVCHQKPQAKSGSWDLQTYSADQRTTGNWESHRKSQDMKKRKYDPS

[4] = biological target: Glyceraldehyde-3-phosphate dehydrogenase (Homo sapiens, UniProt P04406)
[5] = THP-1 cell cytotoxicity, dose response, cytotoxicity control for non-replicating M. tuberculosis project (AID 489025); assay type: functional
[6] = inhibitors of intracellular T. cruzi replication, confirmation, NIH3T3 host cells, beta-gal luminescence (AID 2044); assay type: functional, cell-based;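 also: intracellular parasites grown in NIH/3T3 mouse fibroblasts as host cells; luminescent beta-galactosidase reporter signal from transgenic T. cruzi replicating inside host cells; inhibitors lower the luminescence signal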
[7] = cytotoxicity toward NIH3T3 fibroblasts, dose response, counter-screen, cell-based, ATP luminescence, mouse fibroblasts (AID 2010); assay type: functional;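 also: cells exposed to compound for about 90 hours before reading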
[8] = P. falciparum Dd2 growth inhibitors, dose response, SYBR Green, cherry-picked samples (AID 1159567); assay type: functional, cell-based
[9] = P. falciparum Dd2 growth inhibitors, dose response, SYBR Green, dry powder samples (AID 1159566); assay type: functional, cell-based;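 also: potency for growth inhibition with lower SYBR green DNA signal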
[10] = P. falciparum ATP4 D1247Y mutant growth inhibitors, dose response, NITD609-resistant line, SYBR Green, dry powder (AID 1159571); assay type: functional, cell-based;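 also: parasites synchronized at ring stage by sorbitol before testing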
[11] = P. falciparum 3D7-ScDHODH growth inhibitors, dose response, SYBR Green, dry powder samples (AID 1159570); assay type: functional, cell-based;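 also: parasite growth measured after 72 hours of compound exposure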
[12] = inhibitors of firefly luciferase expression or activity, dose response, H4 neuroglioma cells, luminescence (AID 1990); assay type: functional, cell-based
[13] = Luminescence Cell-Based Dose Response HTS to Identify Inhibitors of 5'UTR Stem-Loop Driven Prion Protein mRNA Translation in H4 Neuroglioblastoma Cells. [Related pubchem assays: 1827 (Project Summary), 1813 (Primary HTS)]; assay type: functional
[14] = inhibitors of SNCA 5'UTR-driven reporter translation, confirmation, H4 neuroglioma cells, luminescence (AID 1988); assay type: functional, cell-based
[15] = biological target: T3, Rac GTPase-activating protein 1 (Homo sapiens, UniProt Q9H0H5); test: MgcRacGAP GTPase-activating activity inhibitors, confirmation, biochemical, ADP Hunter fluorescence, primary and confirmatory (AID 624330); assay type: functional
T3 sequence (Q9H0H5 whole entry): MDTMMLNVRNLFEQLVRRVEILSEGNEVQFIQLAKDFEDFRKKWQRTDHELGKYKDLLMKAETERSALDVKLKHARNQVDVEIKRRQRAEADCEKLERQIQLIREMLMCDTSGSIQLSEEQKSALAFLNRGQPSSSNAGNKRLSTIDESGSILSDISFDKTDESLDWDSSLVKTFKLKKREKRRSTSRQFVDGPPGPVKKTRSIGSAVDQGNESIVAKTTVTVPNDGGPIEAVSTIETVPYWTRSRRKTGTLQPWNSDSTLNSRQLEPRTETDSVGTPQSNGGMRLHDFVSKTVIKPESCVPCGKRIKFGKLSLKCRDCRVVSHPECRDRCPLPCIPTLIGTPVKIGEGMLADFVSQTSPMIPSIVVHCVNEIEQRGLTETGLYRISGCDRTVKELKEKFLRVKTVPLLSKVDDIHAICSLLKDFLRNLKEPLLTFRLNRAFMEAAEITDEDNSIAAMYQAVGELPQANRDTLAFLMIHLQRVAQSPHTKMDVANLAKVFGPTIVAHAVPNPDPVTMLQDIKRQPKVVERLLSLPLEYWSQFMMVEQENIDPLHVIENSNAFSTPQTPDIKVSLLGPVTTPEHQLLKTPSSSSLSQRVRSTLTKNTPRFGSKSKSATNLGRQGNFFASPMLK

[16] = Luminescence Cell-Based Dose Retest to Confirm Inhibitors of Cancer Stem Cells. [Related pubchem assays (depositor defined):AID2717, AID2721]; assay type: functional; settings: Homo sapiens
[17] = HeLa cell cytotoxicity, dose response, cytotoxicity control for MgcRacGAP inhibitor project (AID 624300); assay type: functional
[18] = biological target: Estrogen receptor beta (Homo sapiens, UniProt Q92731);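 also: recombinant ER-beta bound to coactivator SRC1 peptide in presence of estradiol agonist; inhibitors block coactivator peptide binding and lower the FRET signal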
[19] = control 3'UTR Renilla luciferase suppression, dose response, counter-screen for Shn3 inhibitor project, cell-based, Clone20-Shn3RL, cherry-picked (AID 624133); assay type: functional
[20] = biological target: Genome polyprotein (dengue virus type 2, UniProt P29990); test: Dengue-2 NS5 methyltransferase inhibitors, primary screen, biochemical, confirmation dose response (AID 588689); assay type: functional
[21] = biological target: T4, Protein RecA (Mycobacterium tuberculosis, UniProt P9WHJ3); test: Fluorescence Cell-Free Homogeneous Dose Retest to Identify Inhibitors of RecA-Intein Splicing Activity. [Related pubchem assays (depositor defined):AID2097, AID2223, AID489010, AID492950]; assay type: functional
T4 sequence (P9WHJ3 whole entry): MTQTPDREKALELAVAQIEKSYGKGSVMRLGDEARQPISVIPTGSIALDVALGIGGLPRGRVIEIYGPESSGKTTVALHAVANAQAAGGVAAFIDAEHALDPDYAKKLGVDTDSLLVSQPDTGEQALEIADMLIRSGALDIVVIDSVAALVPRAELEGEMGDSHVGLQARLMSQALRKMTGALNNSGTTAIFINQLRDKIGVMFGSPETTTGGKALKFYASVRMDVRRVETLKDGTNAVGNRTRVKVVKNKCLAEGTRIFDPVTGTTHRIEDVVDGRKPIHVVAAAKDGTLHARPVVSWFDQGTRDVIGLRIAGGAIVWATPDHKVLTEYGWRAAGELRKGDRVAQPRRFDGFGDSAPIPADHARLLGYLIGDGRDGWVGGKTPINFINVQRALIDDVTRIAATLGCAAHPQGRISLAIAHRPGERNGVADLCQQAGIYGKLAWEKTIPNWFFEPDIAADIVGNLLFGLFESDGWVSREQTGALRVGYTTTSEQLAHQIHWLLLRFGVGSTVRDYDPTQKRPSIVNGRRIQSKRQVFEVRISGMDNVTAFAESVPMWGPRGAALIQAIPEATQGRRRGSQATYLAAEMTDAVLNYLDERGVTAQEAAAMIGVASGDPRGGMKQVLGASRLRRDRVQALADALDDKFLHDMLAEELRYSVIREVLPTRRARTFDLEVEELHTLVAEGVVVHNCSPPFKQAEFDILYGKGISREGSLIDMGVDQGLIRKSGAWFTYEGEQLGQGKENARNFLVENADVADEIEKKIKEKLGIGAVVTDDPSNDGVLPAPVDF

[22] = test system: Vero; test: Vero cell cytotoxicity, cytotoxicity control for flavivirus capping enzyme inhibitors (AID 588742); assay type: functional; settings: Chlorocebus sabaeus
[23] = Shn3 3'UTR reporter inhibitors, dose response, cell-based, Clone20 osteoblasts, firefly luciferase, cherry-picked (AID 624132); assay type: functional;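 also: firefly luciferase luminescence from reporter carrying the Shn3 3'UTR in osteoblasts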
[24] = biological target: T5, Replicative DNA helicase DnaB (Mycobacterium tuberculosis, UniProt P9WMR3); test: DnaB intein splicing inhibitors, dose response, biochemical, cell-free fluorescence (AID 449749); assay type: functional
T5 sequence (P9WMR3 whole entry): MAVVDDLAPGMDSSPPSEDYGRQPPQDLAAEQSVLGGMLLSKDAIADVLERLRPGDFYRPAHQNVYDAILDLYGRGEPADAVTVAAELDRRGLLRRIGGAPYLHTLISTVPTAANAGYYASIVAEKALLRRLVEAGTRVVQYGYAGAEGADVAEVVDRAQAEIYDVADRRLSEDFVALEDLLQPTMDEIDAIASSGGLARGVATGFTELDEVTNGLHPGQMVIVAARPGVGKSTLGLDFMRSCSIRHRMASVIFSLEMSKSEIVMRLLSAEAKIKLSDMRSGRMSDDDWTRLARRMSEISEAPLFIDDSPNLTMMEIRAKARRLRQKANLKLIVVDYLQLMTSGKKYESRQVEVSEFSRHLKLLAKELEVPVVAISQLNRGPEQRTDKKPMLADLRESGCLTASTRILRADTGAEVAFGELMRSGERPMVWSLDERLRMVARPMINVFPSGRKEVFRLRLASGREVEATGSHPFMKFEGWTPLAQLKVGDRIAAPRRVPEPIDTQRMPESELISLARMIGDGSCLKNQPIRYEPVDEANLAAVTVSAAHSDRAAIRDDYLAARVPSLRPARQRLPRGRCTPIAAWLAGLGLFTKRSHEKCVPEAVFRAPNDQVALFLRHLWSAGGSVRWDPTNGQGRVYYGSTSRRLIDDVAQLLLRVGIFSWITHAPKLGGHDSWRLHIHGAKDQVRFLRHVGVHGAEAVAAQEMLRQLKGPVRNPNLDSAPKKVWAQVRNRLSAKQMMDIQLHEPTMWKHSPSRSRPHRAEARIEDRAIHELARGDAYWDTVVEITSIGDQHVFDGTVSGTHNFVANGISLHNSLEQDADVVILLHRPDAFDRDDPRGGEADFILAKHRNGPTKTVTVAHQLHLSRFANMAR

[25] = biological target: DNA dC->dU-editing enzyme APOBEC-3G (Homo sapiens, UniProt Q9HC16); test: Dose Response confirmation of small molecule APOBEC3G DNA Deaminase Inhibitors via a fluorescence-based single-stranded DNA deaminase assay. [Related pubchem assays (depositor defined):AID493012, AID493028]; assay type: functional
DNA dC->dU-editing enzyme APOBEC-3G, sequence (Q9HC16 whole entry): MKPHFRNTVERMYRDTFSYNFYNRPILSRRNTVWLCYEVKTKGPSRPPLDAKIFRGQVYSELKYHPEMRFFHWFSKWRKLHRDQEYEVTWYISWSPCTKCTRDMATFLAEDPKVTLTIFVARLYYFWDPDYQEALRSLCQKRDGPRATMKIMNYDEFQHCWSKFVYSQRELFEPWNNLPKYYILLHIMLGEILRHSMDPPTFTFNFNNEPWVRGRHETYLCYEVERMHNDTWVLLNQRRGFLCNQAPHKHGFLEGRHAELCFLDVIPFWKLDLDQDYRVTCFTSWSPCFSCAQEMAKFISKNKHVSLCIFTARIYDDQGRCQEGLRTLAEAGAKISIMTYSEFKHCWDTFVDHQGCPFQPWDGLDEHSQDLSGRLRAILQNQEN

Glyceraldehyde-3-phosphate dehydrogenase, sequence (P04406 whole entry): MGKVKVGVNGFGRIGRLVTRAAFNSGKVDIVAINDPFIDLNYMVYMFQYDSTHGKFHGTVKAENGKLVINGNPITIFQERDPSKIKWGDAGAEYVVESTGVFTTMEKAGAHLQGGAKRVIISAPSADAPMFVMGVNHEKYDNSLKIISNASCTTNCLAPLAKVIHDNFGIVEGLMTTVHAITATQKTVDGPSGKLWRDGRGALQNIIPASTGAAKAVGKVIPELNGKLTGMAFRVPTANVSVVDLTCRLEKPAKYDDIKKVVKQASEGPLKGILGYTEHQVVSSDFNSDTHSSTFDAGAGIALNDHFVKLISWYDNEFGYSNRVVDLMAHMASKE
Genome polyprotein, sequence (P29990 2492-3391 limits assumed): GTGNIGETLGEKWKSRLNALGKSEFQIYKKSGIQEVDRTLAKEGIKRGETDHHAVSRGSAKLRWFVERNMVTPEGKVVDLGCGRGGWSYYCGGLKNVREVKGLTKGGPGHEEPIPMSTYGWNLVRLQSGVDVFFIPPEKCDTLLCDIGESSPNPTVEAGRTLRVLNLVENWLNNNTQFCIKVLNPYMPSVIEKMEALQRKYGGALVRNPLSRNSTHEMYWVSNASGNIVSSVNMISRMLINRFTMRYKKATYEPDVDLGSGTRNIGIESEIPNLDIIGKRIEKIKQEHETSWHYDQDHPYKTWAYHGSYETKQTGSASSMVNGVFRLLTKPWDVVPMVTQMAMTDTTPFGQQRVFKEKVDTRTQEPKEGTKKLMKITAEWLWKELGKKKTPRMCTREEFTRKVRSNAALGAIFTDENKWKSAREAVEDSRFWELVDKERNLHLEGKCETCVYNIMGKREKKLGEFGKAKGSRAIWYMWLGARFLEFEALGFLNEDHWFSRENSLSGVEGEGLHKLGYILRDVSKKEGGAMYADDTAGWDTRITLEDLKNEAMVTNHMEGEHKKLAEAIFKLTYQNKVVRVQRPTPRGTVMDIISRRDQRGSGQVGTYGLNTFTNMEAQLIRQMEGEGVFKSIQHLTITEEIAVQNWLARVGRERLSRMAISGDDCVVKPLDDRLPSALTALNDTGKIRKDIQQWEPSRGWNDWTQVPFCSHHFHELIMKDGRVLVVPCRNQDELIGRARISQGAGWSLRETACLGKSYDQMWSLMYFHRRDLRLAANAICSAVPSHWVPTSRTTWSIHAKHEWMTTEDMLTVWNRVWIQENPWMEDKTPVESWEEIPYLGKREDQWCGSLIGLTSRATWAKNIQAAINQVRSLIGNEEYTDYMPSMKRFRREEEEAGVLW
Estrogen receptor beta, sequence (Q92731 whole entry): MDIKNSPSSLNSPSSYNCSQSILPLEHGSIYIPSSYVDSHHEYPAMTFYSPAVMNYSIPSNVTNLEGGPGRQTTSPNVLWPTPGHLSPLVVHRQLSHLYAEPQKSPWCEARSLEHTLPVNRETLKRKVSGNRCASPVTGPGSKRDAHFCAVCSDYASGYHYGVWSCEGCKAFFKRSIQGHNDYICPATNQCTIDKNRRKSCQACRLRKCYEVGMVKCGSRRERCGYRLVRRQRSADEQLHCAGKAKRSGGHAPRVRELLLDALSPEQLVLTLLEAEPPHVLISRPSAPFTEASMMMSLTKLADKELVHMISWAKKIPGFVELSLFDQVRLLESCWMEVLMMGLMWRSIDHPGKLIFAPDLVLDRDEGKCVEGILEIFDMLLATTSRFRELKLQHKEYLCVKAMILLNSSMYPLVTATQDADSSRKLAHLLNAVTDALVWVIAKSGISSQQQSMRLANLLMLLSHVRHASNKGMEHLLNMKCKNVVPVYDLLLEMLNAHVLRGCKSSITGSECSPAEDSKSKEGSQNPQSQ

CC(OC(=O)c1ccc([N+](=O)[O-])s1)C(=O)NC1CCCCC1C (stereo unspecified)
IC50 [1]: 14.1 µM (active)
AC50 [2]: 12 µM (active)

CCOc1cccc2sc(N(CCCN(C)C)C(=O)c3ccc(C(=O)c4ccccc4)cc3)nc12
AC50 [3]: 17.3 µM (active)

Cc1onc(-c2ccccc2Cl)c1C(=O)Nc1ccc(S(N)(=O)=O)cc1
IC50 [4]: > 100 µM (not active)

O=C1/C(=C/c2ccccn2)COc2ccccc21
IC50 [1]: 20.9 µM (active)
CC50 [5]: 28.2 µM (active)

O=C(N/N=C\c1ccc([N+](=O)[O-])o1)C1COc2ccccc2O1 (stereo unspecified)
IC50 [1]: 4.2 µM (active)
EC50 [6]: 0.532 µM (active)
EC50 [7]: > 60 µM (inconclusive)
AC50 [2]: 7.21 µM (active)
CC50 [5]: 32.5 µM (active)

C[C@H]1CN([C@@H](C)CO)C(=O)c2cc(NC(=O)Nc3ccc(C(F)(F)F)cc3)ccc2O[C@@H]1CN(C)C(=O)Nc1cccc2ccccc12
AC50 [8]: 2.41 µM (active)
AC50 [9]: 1.37 µM (active)
AC50 [10]: 1.56 µM (active)
AC50 [11]: 1.42 µM (active)

Cc1onc(-c2ccccc2Cl)c1C(=O)NCc1ccccn1
EC50 [12]: > 120 µM (not active)
EC50 [13]: > 120 µM (not active)
EC50 [14]: > 120 µM (not active)

O=C(NNC(=O)c1ccc2ncccc2c1)c1ccc(Cl)cc1
EC50 [12]: > 120 µM (not active)
EC50 [13]: > 120 µM (not active)
EC50 [14]: > 120 µM (not active)

COc1ccc(/C=N/NC(=O)c2cccnc2)cc1COc1ccc([N+](=O)[O-])c(C)c1
EC50 [12]: > 120 µM (not active)
EC50 [13]: 28.9 µM (active)
EC50 [14]: 8.08 µM (active)

Oc1ccc(-c2csc(Nc3ccccn3)n2)c(O)c1
IC50 [15]: 59.5 µM (active)
AC50 [16]: 1.74 µM (active)
CC50 [17]: 100 µM (active)

CCn1c(NN)nc2sc3c(c2c1=O)CCC3
IC50 [18]: > 50 µM (not active)

COc1cc2cc(C(c3nnnn3C3CCCCC3)N(C)C3CCCCC3)c(O)nc2cc1OC (stereo unspecified)
EC50 [12]: 15.7 µM (active)
EC50 [13]: > 120 µM (not active)
EC50 [14]: > 120 µM (not active)

Cc1cccc(CS(=O)(=O)c2ncc(Cl)c(C(=O)Nc3nnc(C(C)C)s3)n2)c1
AC50 [19]: 4.36 µM (active)
IC50 [20]: 94.3 µM (active)
EC50 [21]: 0.312 µM (active)
CC50 [22]: 25.6 µM (active)
AC50 [23]: 1.62 µM (active)
AC50 [24]: 1.2 µM (active)

CCOC(=O)N1C(=O)[C@](CC)(c2ccccc2)N1C(=O)OCC
AC50 [2]: 10 µM (active)

O=C(NCCCCCCCN1CCCCCCC1)C(C1CCCCC1)C1CCCCC1
AC50 [3]: 8.88 µM (active)

CN(C)CCNC(=O)c1ccc(-c2cn3c(-c4ccc(Oc5ccccc5)cc4)cnc3cn2)cc1
AC50 [3]: 5.06 µM (active)

O=C1C=CC(=O)C=C1 [BENZOQUINONE]
IC50 [25]: 36.1 µM (active)
